Results: ChEMBL document CHEMBL3885861, “Open TG-GATES”

Species: Rattus norvegicus
Experiment: Open TG-GATES - Regimen: Single
Type: toxicity, organism-based, Sprague-Dawley
Design: regimen Single, gender Male, age 6 weeks
Settings: in vivo, po, 3 mg/kg, route gavage, dose level Low; for APTT / Bas / Eos / Fbg / Hb / Ht / Lym / MCH / MCHC / MCV / Mono / Neu / PT / Plat / RBC / Ret / WBC: tissue Blood; for KIDNEY_L / KIDNEY_R / KIDNEY_TOTAL: tissue Kidney; for LIVER: tissue Liver; for A/G / ALP / ALT / AST / BUN / CRE / Ca / Cl / DBIL / GLC / IP / K / LDH / Na / PL / RALB / TBIL / TC / TG / TP / gamma-GTP: tissue Plasma

## C[C@H]1C(=O)O[C@@H]2CCN3CC=C(COC(=O)[C@](C)(O)[C@]1(C)O)[C@H]23 [MONOCROTALINE]
3 h
  TERMINAL_BW: 207 g
  APTT: 21.1 s
  Bas: 0%
  Eos: 0.8%
  Fbg: 296.8 mg/dL
  Hb: 13.5 g/dL
  Ht: 39.3%
  Lym: 80.4%
  MCH: 21.9 pg
  MCHC: 34.3%
  MCV: 63.9 fL
  Mono: 2.6%
  Neu: 16.6%
  PT: 16.6 s
  Plat: 121 x10_4/uL
  RBC: 615.6 x10_4/ul
  Ret: 8.9%
  WBC: 70.3 x10_2/uL
  KIDNEY_L: 0.9 g
  KIDNEY_R: 0.9 g
  KIDNEY_TOTAL: 1.8 g
  LIVER: 9.6 g
  A/G: 1.4
  ALP: 1405.4 IU/L
  ALT: 40.4 IU/L
  AST: 70.6 IU/L
  BUN: 14.4 mg/dL
  CRE: 0.1 mg/dL
  Ca: 10.6 mg/dL
  Cl: 106.4 meq/L
  DBIL: 0.002 mg/dL
  GLC: 176.6 mg/dL
  IP: 8.6 mg/dL
  K: 4.2 meq/L
  LDH: 232.4 IU/L
  Na: 142.8 meq/L
  PL: 141 mg/dL
  RALB: 3.1 g/dL
  TBIL: 0.014 mg/dL
  TC: 79.4 mg/dL
  TG: 73.8 mg/dL
  TP: 5.4 g/dL
  gamma-GTP: 1 IU/L
6 h
  TERMINAL_BW: 213.3 g
  APTT: 20.6 s
  Bas: 0%
  Eos: 0.8%
  Fbg: 314 mg/dL
  Hb: 13.4 g/dL
  Ht: 39.7%
  Lym: 77.6%
  MCH: 21.3 pg
  MCHC: 33.9%
  MCV: 62.8 fL
  Mono: 2.4%
  Neu: 17.8%
  PT: 16.2 s
  Plat: 124.3 x10_4/uL
  RBC: 632.2 x10_4/ul
  Ret: 9.3%
  WBC: 86.8 x10_2/uL
  KIDNEY_L: 0.9 g
  KIDNEY_R: 0.9 g
  KIDNEY_TOTAL: 1.9 g
  LIVER: 9.9 g
  A/G: 1.3
  ALP: 1354.2 IU/L
  ALT: 40 IU/L
  AST: 67.2 IU/L
  BUN: 12.2 mg/dL
  CRE: 0.1 mg/dL
  Ca: 10.7 mg/dL
  Cl: 106 meq/L
  DBIL: 0.004 mg/dL
  GLC: 175.2 mg/dL
  IP: 9.3 mg/dL
  K: 4.5 meq/L
  LDH: 200 IU/L
  Na: 141.8 meq/L
  PL: 139.8 mg/dL
  RALB: 3.1 g/dL
  TBIL: 0.01 mg/dL
  TC: 78 mg/dL
  TG: 86.2 mg/dL
  TP: 5.4 g/dL
  gamma-GTP: 1.2 IU/L
9 h
  TERMINAL_BW: 205.5 g
  APTT: 21 s
  Bas: 0%
  Eos: 0.6%
  Fbg: 291 mg/dL
  Hb: 13.3 g/dL
  Ht: 38.9%
  Lym: 79.8%
  MCH: 20.7 pg
  MCHC: 34.2%
  MCV: 60.6 fL
  Mono: 2.2%
  Neu: 16.2%
  PT: 16.4 s
  Plat: 126 x10_4/uL
  RBC: 642.2 x10_4/ul
  Ret: 8.7%
  WBC: 73.2 x10_2/uL
  KIDNEY_L: 0.9 g
  KIDNEY_R: 1 g
  KIDNEY_TOTAL: 1.9 g
  LIVER: 8.8 g
  A/G: 1.3
  ALP: 1565.2 IU/L
  ALT: 35.6 IU/L
  AST: 67 IU/L
  BUN: 12.4 mg/dL
  CRE: 0.1 mg/dL
  Ca: 10.5 mg/dL
  Cl: 106 meq/L
  DBIL: 0.006 mg/dL
  GLC: 184.4 mg/dL
  IP: 9.5 mg/dL
  K: 4 meq/L
  LDH: 197 IU/L
  Na: 142.2 meq/L
  PL: 130.6 mg/dL
  RALB: 3.1 g/dL
  TBIL: 0.02 mg/dL
  TC: 72.2 mg/dL
  TG: 48.6 mg/dL
  TP: 5.4 g/dL
  gamma-GTP: 1 IU/L
24 h
  TERMINAL_BW: 217.7 g
  APTT: 20.9 s
  Bas: 0%
  Eos: 1%
  Fbg: 305 mg/dL
  Hb: 13.2 g/dL
  Ht: 38.8%
  Lym: 80.6%
  MCH: 20.5 pg
  MCHC: 34.1%
  MCV: 60.3 fL
  Mono: 2.6%
  Neu: 15%
  PT: 16.2 s
  Plat: 117.2 x10_4/uL
  RBC: 645.2 x10_4/ul
  Ret: 7.7%
  WBC: 97.3 x10_2/uL
  KIDNEY_L: 1 g
  KIDNEY_R: 1 g
  KIDNEY_TOTAL: 2 g
  LIVER: 10.4 g
  A/G: 1.3
  ALP: 1841.2 IU/L
  ALT: 43.6 IU/L
  AST: 70.2 IU/L
  BUN: 16.4 mg/dL
  CRE: 0.1 mg/dL
  Ca: 10.8 mg/dL
  Cl: 106.4 meq/L
  DBIL: 0.006 mg/dL
  GLC: 178 mg/dL
  IP: 7.6 mg/dL
  K: 4.2 meq/L
  LDH: 220.2 IU/L
  Na: 142.2 meq/L
  PL: 160.2 mg/dL
  RALB: 3.2 g/dL
  TBIL: 0.006 mg/dL
  TC: 81.2 mg/dL
  TG: 102.8 mg/dL
  TP: 5.6 g/dL
  gamma-GTP: 1 IU/L
